{
  "source": "paper PMC9027532",
  "about": "“Preclinical Pharmacokinetic Studies of a Novel Diuretic Inhibiting Urea Transporters” (Molecules, 2022)",
  "key": {"[1]": {"tested_on": "SD rats", "assay": "PK-PD study: urine output increment (diuresis) in rats", "assay_type": "in vivo, Sprague-Dawley rats", "description": "Blood samples were collected via orbital venous plexus into tubes with K2–EDTA on the ice at 0.083, 0.167, 0.25, 0.5, 1, 2, 4, 6, 8, 12, and 24 h. […] Blood was collected at 0.033, 0.083, 0.25, 0.5, 1, 2, 3, 4, 6, 12, and 24 h. Plasma was obtained by centrifugation at 3000 rpm for 10 min at 4 °C. For the PK–PD relationship study, the total urine of rats within 24 h was collected and weighed. The urine output was approximately calculated by assuming the density of urine was 1 g/mL. The diuresis effect was the urine output increment over the baseline urine output of each rat. The plasma and urine samples were stored at −80 °C until analysis."}, "[2]": {"assay": "Plasma protein binding by equilibrium dialysis, human plasma", "assay_type": "in vitro ADME", "conditions": "human, plasma", "procedure": "(§1) The plasma protein binding (PPB) and blood plasma ratio (BPR) are crucial parameters influencing the drug distribution and elimination in plasma. The PPB profile of 25a was evaluated by equilibrium dialysis, a classic method to assess the interactions of small molecules with proteins. The PPB of 25a was tested at 50, 500, and 2500 ng/mL (Table 7). […] When considering the allometric scaling of PK parameters, the species difference of protein binding between humans and rats should be considered.\n(§2) The plasma protein binding (PPB) ratio of 25a was assessed via equilibrium dialysis in SD rats and human plasma. Four hundred microliters of plasma containing 50, 500, or 2500 ng/mL 25a were loaded into the dialysis bags (plasma side), and the bags were placed into tubes containing 4 mL of the dialysis buffer (buffer side). The tubes were then rotated at approximately 100 rpm in a humidified incubator with 5% CO2 at 37 ± 1 °C for 5 h.\n(§3) After the 5 h dialysis, aliquots of 50 μL samples were taken from both the buffer and the plasma sides. An equal volume of the opposite blank matrix (buffer or plasma) was added to each sample to reach a final volume of 100 μL with a volume ratio of plasma to dialysis buffer at 1:1 (v/v). All samples were further processed by adding 600 μL of stop solution (containing 10 ng/mL IS) to precipitate protein for LC–MS/MS analysis. The PPB ratio (%) was calculated by PPB% = 100% × (1 − Conc.buffer side/Conc.plasma side)."}, "[3]": {"tested_on": "plasma protein", "assay": "Plasma protein binding by equilibrium dialysis, human plasma", "assay_type": "in vitro ADME", "conditions": "human plasma, 50, 500, 2500 ng/mL", "procedure": "as §1, §2, §3"}, "[4]": {"assay": "Pharmacokinetic study in rats (plasma, LC-MS/MS, NCA)", "conditions": "male, Sprague-Dawley, rat, plasma; for half-life: t1/2, rats; for bioavailability: F (oral bioavailability); for concentration at 0.083 h / concentration at 0.167 h / concentration at 0.25 h / concentration at 0.5 h / concentration at 1 h / concentration at 2 h / concentration at 4 h / concentration at 6 h / concentration at 8 h / concentration at 12 h / concentration at 24 h: Mean plasma concentration", "description": "Blood samples were collected via orbital venous plexus into tubes with K2–EDTA on the ice at 0.083, 0.167, 0.25, 0.5, 1, 2, 4, 6, 8, 12, and 24 h. […] Blood was collected at 0.033, 0.083, 0.25, 0.5, 1, 2, 3, 4, 6, 12, and 24 h. Plasma was obtained by centrifugation at 3000 rpm for 10 min at 4 °C. […] The plasma and urine samples were stored at −80 °C until analysis. The PK parameters were calculated by DAS 3.2.8 software (Beijing, China) using the noncompartmental analysis (NCA) model. The oral bioavailability (F) was calculated by F = (AUCp.o. × Dosei.v.)/(AUCi.v. × Dosep.o.)."}, "[5]": {"conditions": "po, 25 mg/kg, rats, single p.o. 25 mg/kg"}, "[6]": {"conditions": "po, 50 mg/kg, rats, single p.o. 50 mg/kg"}},
  "data": [
    {"smiles": "CC(=O)Nc1ccc(NC(=O)c2ccc(C(C)=O)o2)cc1", "note": "[Compound 25a, N-(4-acetamidophenyl)-5-acetylfuran-2-carboxamide]", "values": [
      {"measurement": "urine output increment per 12 h (diuresis)", "setting": "[1]; p.o. 25 mg/kg", "value": "0.5 ± 0.2", "unit": "mL"},
      {"measurement": "urine output increment per 12 h (diuresis)", "setting": "[1]; p.o. 50 mg/kg", "value": "1.6 ± 0.8", "unit": "mL"},
      {"measurement": "urine output increment per 12 h (diuresis)", "setting": "[1]; p.o. 100 mg/kg", "value": "2.7 ± 0.9", "unit": "mL"},
      {"measurement": "fraction unbound at 5 h, 50 ng/mL", "setting": "[2]; human plasma, 50 ng/mL", "value": 0.559},
      {"measurement": "fraction unbound at 5 h, 500 ng/mL", "setting": "[2]; human plasma, 500 ng/mL", "value": 0.612},
      {"measurement": "fraction unbound at 5 h, 2500 ng/mL", "setting": "[2]; human plasma, 2500 ng/mL", "value": 0.595},
      {"measurement": "fraction unbound at 5 h", "setting": "[2]; human plasma, 50, 500, 2500 ng/mL, read-out: mean plasma protein binding (PPB) (converted)", "value": "~0.6"},
      {"measurement": "mean plasma protein binding (PPB)", "setting": "[3]", "value": "38.8%–44.1%"},
      {"measurement": "AUC(0-inf)", "setting": "[4]; iv, 1 mg/kg", "value": "503 ± 124", "unit": "ng·h/mL"},
      {"measurement": "AUC(0-t)", "setting": "[4]; iv, 1 mg/kg", "value": "501 ± 124", "unit": "ng·h/mL"},
      {"measurement": "C0", "setting": "[4]; iv, 1 mg/kg", "value": "1710 ± 398", "unit": "ng/mL"},
      {"measurement": "MRT", "setting": "[4]; iv, 1 mg/kg, rats, single i.v. 1 mg/kg", "value": "0.6 ± 0.1", "unit": "h"},
      {"measurement": "half-life", "setting": "[4]; iv, 1 mg/kg, single i.v. 1 mg/kg", "value": "0.89 ± 0.52", "unit": "h"},
      {"measurement": "AUC(0-inf)", "setting": "[4]; po, 25 mg/kg", "value": "2530 ± 362", "unit": "ng·h/mL"},
      {"measurement": "AUC(0-t)", "setting": "[4]; po, 25 mg/kg", "value": "2520 ± 395", "unit": "ng·h/mL"},
      {"measurement": "CL/F", "setting": "[4]; [5]", "value": 165, "unit": "mL/min/kg"},
      {"measurement": "Cmax", "setting": "[4]; [5]", "value": "515 ± 107", "unit": "ng/mL"},
      {"measurement": "bioavailability", "setting": "[4]; [5]", "value": "20.1 ± 0.8", "unit": "%"},
      {"measurement": "MRT", "setting": "[4]; [5]", "value": "5.2 ± 0.4", "unit": "h"},
      {"measurement": "concentration at 0.083 h", "setting": "[4]; [5]", "value": "282 ± 62.3", "unit": "ng/mL"},
      {"measurement": "concentration at 0.167 h", "setting": "[4]; [5]", "value": "431 ± 116", "unit": "ng/mL"},
      {"measurement": "concentration at 0.25 h", "setting": "[4]; [5]", "value": "515 ± 122", "unit": "ng/mL"},
      {"measurement": "concentration at 0.5 h", "setting": "[4]; [5]", "value": "167 ± 33.5", "unit": "ng/mL"},
      {"measurement": "concentration at 1 h", "setting": "[4]; [5]", "value": "245 ± 92.5", "unit": "ng/mL"},
      {"measurement": "concentration at 2 h", "setting": "[4]; [5]", "value": "206 ± 83.7", "unit": "ng/mL"},
      {"measurement": "concentration at 4 h", "setting": "[4]; [5]", "value": "372 ± 74.3", "unit": "ng/mL"},
      {"measurement": "concentration at 6 h", "setting": "[4]; [5]", "value": "230 ± 49.7", "unit": "ng/mL"},
      {"measurement": "concentration at 8 h", "setting": "[4]; [5]", "value": "102 ± 7.7", "unit": "ng/mL"},
      {"measurement": "concentration at 12 h", "setting": "[4]; [5]", "value": "36.8 ± 2.7", "unit": "ng/mL"},
      {"measurement": "concentration at 24 h", "setting": "[4]; [5]", "value": "2.1 ± 1.3", "unit": "ng/mL"},
      {"measurement": "half-life", "setting": "[4]; po, 25 mg/kg, single p.o. 25 mg/kg", "value": "2.86 ± 0.29", "unit": "h"},
      {"measurement": "Tmax", "setting": "[4]; po, 25 mg/kg, tmax, rats, single p.o. 25 mg/kg", "value": 0.25, "unit": "h"},
      {"measurement": "AUC(0-inf)", "setting": "[4]; po, 50 mg/kg", "value": "4740 ± 854", "unit": "ng·h/mL"},
      {"measurement": "AUC(0-t)", "setting": "[4]; po, 50 mg/kg", "value": "4730 ± 854", "unit": "ng·h/mL"},
      {"measurement": "CL/F", "setting": "[4]; [6]", "value": 175, "unit": "mL/min/kg"},
      {"measurement": "Cmax", "setting": "[4]; [6]", "value": "693 ± 260", "unit": "ng/mL"},
      {"measurement": "bioavailability", "setting": "[4]; [6]", "value": "18.9 ± 1.7", "unit": "%"},
      {"measurement": "concentration at 0.083 h", "setting": "[4]; [6]", "value": "236 ± 93.5", "unit": "ng/mL"},
      {"measurement": "concentration at 0.167 h", "setting": "[4]; [6]", "value": "380 ± 173", "unit": "ng/mL"},
      {"measurement": "concentration at 0.25 h", "setting": "[4]; [6]", "value": "496 ± 211", "unit": "ng/mL"},
      {"measurement": "concentration at 0.5 h", "setting": "[4]; [6]", "value": "693 ± 272", "unit": "ng/mL"},
      {"measurement": "concentration at 1 h", "setting": "[4]; [6]", "value": "429 ± 149", "unit": "ng/mL"},
      {"measurement": "concentration at 2 h", "setting": "[4]; [6]", "value": "454 ± 97.6", "unit": "ng/mL"},
      {"measurement": "concentration at 4 h", "setting": "[4]; [6]", "value": "553 ± 97.8", "unit": "ng/mL"},
      {"measurement": "concentration at 6 h", "setting": "[4]; [6]", "value": "383 ± 166", "unit": "ng/mL"},
      {"measurement": "concentration at 8 h", "setting": "[4]; [6]", "value": "271 ± 75.1", "unit": "ng/mL"},
      {"measurement": "concentration at 12 h", "setting": "[4]; [6]", "value": "78.3 ± 36.1", "unit": "ng/mL"},
      {"measurement": "concentration at 24 h", "setting": "[4]; [6]", "value": "3.6 ± 1.1", "unit": "ng/mL"},
      {"measurement": "half-life", "setting": "[4]; po, 50 mg/kg, single p.o. 50 mg/kg", "value": "2.63 ± 0.2", "unit": "h"}
    ]}
  ]
}
